33 compounds from patent US20130303509A1, “NAMPT INHIBITORS” (AbbVie Inc., priority 2012, published 2013) can be followed below.

In this experiment the test system is PC3 cells. Description: NAMPT Cell Proliferation Assay. The experiment is classed as cell-based. The note with it: Homo sapiens, PC-3, 120 h, 5 days incubation, cell viability by Cell Titer Glo. In short, it runs like this:
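Five-day CellTiter-Glo viability readout in PC3 cells grown in RPMI/10% heat-inactivated FBS. Compounds added after overnight attachment as a 10-fold dilution series, […]. Percent inhibition fitted to sigmoidal dose-response to derive IC50.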
Regarding `O=C(Nc1ccc(OC2CN(C(=O)c3ccc(F)cc3)C2)cc1)C1CN(c2ccnnc2)C1` [Example 199, N-(4-{[1-(4-fluorobenzoyl)azetidin-3-yl]oxy}phenyl)-1-(pyridazin-4-yl)azetidine-3-carboxamide], it took 97.4 nM to reach half-maximal inhibition (IC50). As to `O=C(Nc1ccc(OC2CN(C(=O)c3ccc(F)cc3F)C2)cc1)C1CN(c2ccnnc2)C1` [Example 200, N-(4-{[1-(2,4-difluorobenzoyl)azetidin-3-yl]oxy}phenyl)-1-(pyridazin-4-yl)azetidine-3-carboxamide], the IC50 (commonly the concentration that gives 50% inhibition) came out at 71.9 nM. Under `O=C(Nc1ccc(OC2CN(C(=O)C(F)(F)c3ccccc3)C2)cc1)C1CN(c2ccnnc2)C1` [Example 201, N-[4-({1-[difluoro(phenyl)acetyl]azetidin-3-yl}oxy)phenyl]-1-(pyridazin-4-yl)azetidine-3-carboxamide] stands 60.9 nM. To `O=C(Nc1ccc(OC2CN(C(=O)C3CCC(F)(F)CC3)C2)cc1)C1CN(c2ccnnc2)C1` [Example 202, N-[4-({1-[(4,4-difluorocyclohexyl)carbonyl]azetidin-3-yl}oxy)phenyl]-1-(pyridazin-4-yl)azetidine-3-carboxamide] belongs 168 nM; to `O=C(Nc1ccc(OC2CN(C(=O)Cc3ccc(F)cc3)C2)cc1)C1CN(c2ccnnc2)C1` [Example 203, N-[4-({1-[(4-fluorophenyl)acetyl]azetidin-3-yl}oxy)phenyl]-1-(pyridazin-4-yl)azetidine-3-carboxamide], 606 nM.

`O=C(Nc1ccc(C2CCN(C(=O)CC3CCCC3)CC2)cc1)[C@H]1CCN(c2cccnc2)C1` [Example 204, (3S)—N-{4-[1-(cyclopentylacetyl)piperidin-4-yl]phenyl}-1-(pyridin-3-yl)pyrrolidine-3-carboxamide] yielded a 50% inhibitory concentration (IC50) of 24.5 nM. Against the preceding compound, the IC50 is about 25-fold lower. To `O=C(Nc1ccc(OC2CN(C(=O)c3ccc(C(F)(F)F)cc3)C2)cc1)C1CN(c2ccnnc2)C1` [Example 205, 1-(pyridazin-4-yl)-N-[4-({1-[4-(trifluoromethyl)benzoyl]azetidin-3-yl}oxy)phenyl]azetidine-3-carboxamide] belongs 38.7 nM; to `O=C(Nc1ccc(OC2CN(C(=O)c3ccccc3)C2)cc1)C1CN(c2ccnnc2)C1` [Example 206, N-{4-[(1-benzoylazetidin-3-yl)oxy]phenyl}-1-(pyridazin-4-yl)azetidine-3-carboxamide], 67.4 nM; to `CC(C)(O)C(=O)N1CC(Oc2ccc(NC(=O)C3CN(c4ccnnc4)C3)cc2)C1` [Example 207, N-(4-{[1-(2-hydroxy-2-methylpropanoyl)azetidin-3-yl]oxy}phenyl)-1-(pyridazin-4-yl)azetidine-3-carboxamide], 671 nM.

`O=C(Nc1ccc(OC2CN(C(=O)C3CCOC3)C2)cc1)C1CN(c2ccnnc2)C1` (stereo not drawn) [Example 208, 1-(pyridazin-4-yl)-N-(4-{[1-(tetrahydrofuran-3-ylcarbonyl)azetidin-3-yl]oxy}phenyl)azetidine-3-carboxamide] registered an IC50 of 593 nM.

As to `O=C(Nc1ccc(OC2CN(C(=O)c3ccoc3)C2)cc1)C1CN(c2ccnnc2)C1` [Example 209, N-(4-{[1-(furan-3-ylcarbonyl)azetidin-3-yl]oxy}phenyl)-1-(pyridazin-4-yl)azetidine-3-carboxamide], the IC50 was found to be 81.6 nM. Compared with the last compound, the IC50 is about 7.3-fold lower.

Compound `CCCCC(=O)N1CC(Oc2ccc(NC(=O)C3CN(c4ccnnc4)C3)cc2)C1` [Example 210, N-{4-[(1-pentanoylazetidin-3-yl)oxy]phenyl}-1-(pyridazin-4-yl)azetidine-3-carboxamide] gave an IC50 of 62.7 nM. Under `O=C(Nc1ccc(OC2CCN(C(=O)c3ccccc3Cl)CC2)cc1)C1CN(c2cccnn2)C1` [Example 211, N-(4-{[1-(2-chlorobenzoyl)piperidin-4-yl]oxy}phenyl)-1-(pyridazin-3-yl)azetidine-3-carboxamide] stands 5.94 nM; under `CC[C@H](C)C(=O)N1CCC(Oc2ccc(NC(=O)C3CN(c4cccnn4)C3)cc2)CC1` [Example 212, N-[4-({1-[(2S)-2-methylbutanoyl]piperidin-4-yl}oxy)phenyl]-1-(pyridazin-3-yl)azetidine-3-carboxamide], 5.79 nM. As to `O=C(Nc1ccc(OC2CCN(C(=O)c3nccs3)CC2)cc1)C1CN(c2cccnn2)C1` [Example 213, 1-(pyridazin-3-yl)-N-(4-{[1-(1,3-thiazol-2-ylcarbonyl)piperidin-4-yl]oxy}phenyl)azetidine-3-carboxamide], the IC50 worked out at 6.88 nM. Compound `O=C(Nc1ccc(OC2CCN(C(=O)C3CCOCC3)CC2)cc1)C1CN(c2cccnn2)C1` [Example 214, 1-(pyridazin-3-yl)-N-(4-{[1-(tetrahydro-2H-pyran-4-ylcarbonyl)piperidin-4-yl]oxy}phenyl)azetidine-3-carboxamide] returned an IC50 of 9.09 nM. Under `O=C(Nc1ccc(OC2CCN(C(=O)C(F)(F)c3ccccc3)CC2)cc1)C1CN(c2cccnn2)C1` [Example 215, N-[4-({1-[difluoro(phenyl)acetyl]piperidin-4-yl}oxy)phenyl]-1-(pyridazin-3-yl)azetidine-3-carboxamide] stands 6.95 nM; under `O=C(Nc1ccc(OC2CCN(C(=O)C3CCC(F)(F)CC3)CC2)cc1)C1CN(c2cccnn2)C1` [Example 216, N-[4-({1-[(4,4-difluorocyclohexyl)carbonyl]piperidin-4-yl}oxy)phenyl]-1-(pyridazin-3-yl)azetidine-3-carboxamide], 5.99 nM; under `CC(C)(C(=O)N1CCC(Oc2ccc(NC(=O)C3CN(c4cccnn4)C3)cc2)CC1)c1ccccc1` [Example 217, N-(4-{[1-(2-methyl-2-phenylpropanoyl)piperidin-4-yl]oxy}phenyl)-1-(pyridazin-3-yl)azetidine-3-carboxamide], 2.55 nM.

`O=C(Nc1ccc(OC2CCN(C(=O)c3cscn3)CC2)cc1)C1CN(c2cccnn2)C1` [Example 218, 1-(pyridazin-3-yl)-N-(4-{[1-(1,3-thiazol-4-ylcarbonyl)piperidin-4-yl]oxy}phenyl)azetidine-3-carboxamide] showed an IC50 of 8.86 nM. Under `Cc1ccc(C(=O)N2CCC(Oc3ccc(NC(=O)C4CN(c5cccnn5)C4)cc3)CC2)s1` [Example 219, N-[4-({1-[(5-methylthiophen-2-yl)carbonyl]piperidin-4-yl}oxy)phenyl]-1-(pyridazin-3-yl)azetidine-3-carboxamide] stands 8.86 nM; under `O=C(Nc1ccc(OC2CCN(C(=O)Cc3ccc(C(F)(F)F)cc3)CC2)cc1)C1CN(c2cccnn2)C1` [Example 220, 1-(pyridazin-3-yl)-N-{4-[(1-{[4-(trifluoromethyl)phenyl]acetyl}piperidin-4-yl)oxy]phenyl}azetidine-3-carboxamide], 13.2 nM; under `O=C(Nc1ccc(OC2CCN(C(=O)C3CCCO3)CC2)cc1)C1CN(c2cccnn2)C1` (stereo not drawn) [Example 221, 1-(pyridazin-3-yl)-N-(4-{[1-(tetrahydrofuran-2-ylcarbonyl)piperidin-4-yl]oxy}phenyl)azetidine-3-carboxamide], 8.99 nM.

As to `O=C(Nc1ccc(OC2CCN(C(=O)c3cccc(C(F)(F)F)c3)CC2)cc1)C1CN(c2cccnn2)C1` [Example 222, 1-(pyridazin-3-yl)-N-[4-({1-[3-(trifluoromethyl)benzoyl]piperidin-4-yl}oxy)phenyl]azetidine-3-carboxamide], the IC50 came to 15.5 nM. This IC50 is about 1.7-fold higher than that of the compound before. To `O=C(Nc1ccc(OC2CCN(C(=O)c3ccsc3)CC2)cc1)C1CN(c2cccnn2)C1` [Example 223, 1-(pyridazin-3-yl)-N-(4-{[1-(thiophen-3-ylcarbonyl)piperidin-4-yl]oxy}phenyl)azetidine-3-carboxamide] belongs 5.5 nM. To `O=C(Nc1ccc(OC2CCN(C(=O)c3cccc(OC(F)(F)F)c3)CC2)cc1)C1CN(c2cccnn2)C1` [Example 224, 1-(pyridazin-3-yl)-N-[4-({1-[3-(trifluoromethoxy)benzoyl]piperidin-4-yl}oxy)phenyl]azetidine-3-carboxamide] belongs 7.52 nM; to `CC(C)CC(=O)N1CCC(Oc2ccc(NC(=O)C3CN(c4cccnn4)C3)cc2)CC1` [Example 225, N-(4-{[1-(3-methylbutanoyl)piperidin-4-yl]oxy}phenyl)-1-(pyridazin-3-yl)azetidine-3-carboxamide], 8.76 nM. To `O=C(Nc1ccc(OC2CCN(C(=O)C3CCOC3)CC2)cc1)C1CN(c2cccnn2)C1` (stereo not drawn) [Example 226, 1-(pyridazin-3-yl)-N-(4-{[1-(tetrahydrofuran-3-ylcarbonyl)piperidin-4-yl]oxy}phenyl)azetidine-3-carboxamide] belongs 8.89 nM. Take `O=C(Nc1ccc(OC2CCN(C(=O)Cc3cccc(F)c3)CC2)cc1)C1CN(c2cccnn2)C1` [Example 227, N-[4-({1-[(3-fluorophenyl)acetyl]piperidin-4-yl}oxy)phenyl]-1-(pyridazin-3-yl)azetidine-3-carboxamide]: the midpoint of inhibition, the IC50, lay at 4.53 nM. For `O=C(Nc1ccc(OC2CCN(C(=O)c3ccccc3F)CC2)cc1)C1CN(c2cccnn2)C1` [Example 228, N-(4-{[1-(2-fluorobenzoyl)piperidin-4-yl]oxy}phenyl)-1-(pyridazin-3-yl)azetidine-3-carboxamide], the midpoint of inhibition, the IC50, lay at 5.97 nM. The IC50 values of the last two compounds are within 1.5-fold of each other. Under `O=C(Nc1ccc(OC2CCN(C(=O)c3ccc(F)cc3F)CC2)cc1)C1CN(c2cccnn2)C1` [Example 229, N-(4-{[1-(2,4-difluorobenzoyl)piperidin-4-yl]oxy}phenyl)-1-(pyridazin-3-yl)azetidine-3-carboxamide] stands 6.46 nM.

For the compound `O=C(Nc1ccc(OC2CCN(C(=O)c3ccc(F)cc3)CC2)cc1)C1CN(c2cccnn2)C1` [Example 230, N-(4-{[1-(4-fluorobenzoyl)piperidin-4-yl]oxy}phenyl)-1-(pyridazin-3-yl)azetidine-3-carboxamide], the IC50 amounted to 9.05 nM.

For the compound `O=C(Nc1ccc(OC2CCN(C(=O)c3cccc(F)c3)CC2)cc1)C1CN(c2cccnn2)C1` [Example 231, N-(4-{[1-(3-fluorobenzoyl)piperidin-4-yl]oxy}phenyl)-1-(pyridazin-3-yl)azetidine-3-carboxamide], the IC50 was found to be 8.75 nM.
